This passage reports GI50 and Activity results from ChEMBL document CHEMBL5131478, “3,5-Bis(trifluoromethyl)phenylsulfonamides, a novel pancreatic cancer active lead. Investigation of the terminal aromatic moiety” (Bioorg Med Chem Lett, 2022).

In one data set the test system is MIA PaCa-2. Briefly: Growth inhibition of human MIA PaCa-2 cells incubated for 72 hrs by MTT assay. The class given is functional. A general note: Tetrazolium dyes change colour on reduction, which living cells bring about.
In a further data set the test system is HT-29. Briefly: Growth inhibition of human HT-29 cells incubated for 72 hrs by MTT assay. The class given is functional.
For a further data set, the system named is MCF7. Briefly: Growth inhibition of human MCF7 cells incubated for 72 hrs by MTT assay. Format: functional.
The next data set has as its system A2780. Briefly: Growth inhibition of human A2780 cells incubated for 72 hrs by MTT assay. Format: functional.
The next data set concerns NCI-H460. Briefly: Growth inhibition of human NCI-H460 cells incubated for 72 hrs by MTT assay. The class given is functional.
In the next data set the test system is A-431. Briefly: Growth inhibition of human A-431 cells incubated for 72 hrs by MTT assay. Format: functional.
The test system of a further data set is DU-145. Briefly: Growth inhibition of human DU-145 cells incubated for 72 hrs by MTT assay. The class given is functional.
The test system of a further data set is BE(2)-C. Briefly: Growth inhibition of human BE2C cells incubated for 72 hrs by MTT assay. The class given is functional.
The next data set concerns U-87 MG. Briefly: Growth inhibition of human U87 cells incubated for 72 hrs by MTT assay. The class given is functional, U-87MG ATCC.
A short description of data set [1]: Growth inhibition of human SJG2 cells incubated for 72 hrs by MTT assay. Format: functional. Particulars: SJ-G2.
Data set [2] in a line: Growth inhibition of human MCF-10A cells incubated for 72 hrs by MTT assay. Format: toxicity, cell-based.
For a further data set, the system named is ASPC1. Briefly: Growth inhibition of human ASPC1 cells incubated for 72 hrs by MTT assay. The class given is functional.
The test system of a further data set is BXPC-3. Briefly: Growth inhibition of human BXPC-3 cells incubated for 72 hrs by MTT assay. Format: functional.
The next data set deals with Capan-2. Briefly: Growth inhibition of human Capan-2 cells incubated for 72 hrs by MTT assay. The class given is functional.
The subject of another data set is HPAC. Briefly: Growth inhibition of human HPAC cells incubated for 72 hrs by MTT assay. The class given is functional.
The next data set has as its system PANC-1. Briefly: Growth inhibition of human PANC-1 cells incubated for 72 hrs by MTT assay. Format: functional.
The next data set relates to MCF-10A. Briefly: Cytotoxicity against human MCF-10A cells assessed as inhibition of cell growth at 25 uM incubated for 72 hrs by MTT assay. Format: toxicity, cell-based.

With `CC(C)(C)c1ccc(CNCCCNS(=O)(=O)c2cc(C(F)(F)F)cc(C(F)(F)F)c2)cc1`, the GI50 – broadly, the concentration giving 50% growth inhibition – is 2300 nM in the data set on MIA PaCa-2; 2000 nM in the data set on HT-29; 2100 nM with MCF7; 2900 nM with A2780; 2500 nM in the data set with NCI-H460; 2800 nM with A-431. In addition, the GI50 turned out to be 2700 nM in the data set with DU-145; 2500 nM in the data set with BE(2)-C; 2300 nM in the data set on U-87 MG; 2400 nM in data set [1]; 2700 nM with ASPC1; 1400 nM in the data set on BXPC-3. Further, the GI50 in the data set on Capan-2 was found to be 2100 nM; in the data set on HPAC, 2300 nM; with PANC-1, 2500 nM. The same compound yielded a GI50 at 72 h in data set [2] of 3200 nM.

As to `O=S(=O)(NCCNCc1ccc(Br)cc1)c1cc(C(F)(F)F)cc(C(F)(F)F)c1`, in the data set on MCF-10A, the Activity result was “Non-Toxic”.

With `O=S(=O)(NCCCNCc1ccc(-c2ccccc2)cc1)c1cc(C(F)(F)F)cc(C(F)(F)F)c1`, the GI50 with MIA PaCa-2 turned out to be 2400 nM; in the data set on HT-29, 2300 nM; in the data set on MCF7, 1700 nM; in the data set on A2780, 2600 nM; in the data set on NCI-H460, 2500 nM; in the data set with A-431 it was 2600 nM. The GI50 was found to be 2700 nM in the data set with DU-145; 2600 nM in the data set on BE(2)-C; 2200 nM with U-87 MG; 2300 nM in [1]; 2500 nM in the data set on ASPC1; 1700 nM with BXPC-3. Moreover, the results for the GI50 in the data set on Capan-2, with HPAC and in the data set on PANC-1 were 2200 nM, 2700 nM and 2500 nM, respectively. Moreover, halving of growth in data set [2] (GI50 at 72 h) required 2800 nM.

With `O=S(=O)(NCCCNCc1ccc(Br)cc1)c1cc(C(F)(F)F)cc(C(F)(F)F)c1`, the GI50 in the data set with MIA PaCa-2 amounted to 2300 nM; with HT-29, 2200 nM; in the data set with MCF7 it was 1900 nM; in the data set with A2780, 2600 nM; with NCI-H460, 2500 nM; in the data set with A-431, 2500 nM. The GI50 is 2600 nM in the data set with DU-145; 2700 nM in the data set on BE(2)-C; 2100 nM in the data set on U-87 MG; 2400 nM in [1]; 2800 nM in the data set on ASPC1; 1500 nM with BXPC-3. The values for the GI50 in the data set with Capan-2, in the data set with HPAC and with PANC-1 were 2000 nM, 2900 nM and 2200 nM, respectively. Moreover, halving of growth in [2] (GI50 at 72 h) required 3100 nM.

As for `O=S(=O)(NCCNCc1ccc(C(F)(F)F)cc1)c1cc(C(F)(F)F)cc(C(F)(F)F)c1`, in the data set with MCF-10A, the Activity entry is recorded as “Non-Toxic”.

In the case of `CC(C)(C)c1ccc(CNCCNS(=O)(=O)c2cc(C(F)(F)F)cc(C(F)(F)F)c2)cc1`, the GI50 with MIA PaCa-2 was 15000 nM; in the data set on HT-29, 14000 nM; in the data set on MCF7, 13000 nM; with A2780 it was 14000 nM; with NCI-H460, 14000 nM; in the data set with A-431 it was 16000 nM. Moreover, the GI50 in the data set on DU-145 is 16000 nM; in the data set on BE(2)-C, 14000 nM; in the data set with U-87 MG it was 13000 nM; in data set [1], 14000 nM; in the data set on ASPC1, 14000 nM; with BXPC-3, 8800 nM. Besides, the figures for the 50% growth inhibitory concentration (GI50) in the data set with Capan-2, with HPAC and with PANC-1 were 13000 nM, 14000 nM and 13000 nM, respectively. In addition, in [2], halving of growth (GI50 at 72 h) required 14000 nM.

Regarding `COc1ccc(CNCCNS(=O)(=O)c2cc(C(F)(F)F)cc(C(F)(F)F)c2)cc1OC`, the GI50 in the data set with MIA PaCa-2 was found to be 29000 nM; with HT-29 it was 13000 nM; with MCF7, 25000 nM; in the data set with A2780, 14000 nM; in the data set on NCI-H460, 19000 nM; in the data set with A-431, 25000 nM. The GI50 in the data set with DU-145 was determined as 30000 nM; with BE(2)-C it was 23000 nM; in the data set with U-87 MG, 25000 nM; in data set [1], 29000 nM; with ASPC1 it was 20000 nM; in the data set with BXPC-3, 20000 nM. In addition, the results for the GI50 in the data set on Capan-2, in the data set with HPAC and in the data set on PANC-1 were 34000 nM, 16000 nM and 34000 nM, respectively. In addition, the GI50 at 72 h in [2] amounted to 25000 nM.

As to `COc1ccc(CNCCCNS(=O)(=O)c2cc(C(F)(F)F)cc(C(F)(F)F)c2)cc1OC`, the GI50 worked out at 2800 nM with MIA PaCa-2; 2700 nM with HT-29; 1900 nM in the data set on MCF7; 3800 nM with A2780; 2400 nM in the data set on NCI-H460; 7000 nM with A-431. Moreover, the 50% growth inhibitory concentration (GI50) turned out to be 4000 nM with DU-145; 3600 nM with BE(2)-C; 3400 nM in the data set on U-87 MG; 18000 nM in data set [1]; 6400 nM in the data set on ASPC1; 13000 nM in the data set with BXPC-3. Further, the GI50 was 15000 nM with Capan-2, 3500 nM with HPAC and 18000 nM with PANC-1. For the same compound, it took 5300 nM to inhibit growth in data set [2] by half (GI50 at 72 h).

Consider `O=S(=O)(NCCNCc1ccc(-c2ccccc2)cc1)c1cc(C(F)(F)F)cc(C(F)(F)F)c1`, for which the concentration for 50% growth inhibition (GI50) was 2700 nM with MIA PaCa-2; 2700 nM in the data set with HT-29; 1400 nM with MCF7; 2600 nM with A2780; 2600 nM in the data set on NCI-H460; 2400 nM with A-431. Also, the GI50 in the data set on DU-145 was 2500 nM; in the data set with BE(2)-C, 2700 nM; in the data set on U-87 MG it was 1400 nM; in [1] it was 2500 nM; in the data set on ASPC1, 2800 nM; in the data set on BXPC-3 it was 1600 nM. Besides, the values for the GI50 in the data set with Capan-2, in the data set on HPAC and in the data set on PANC-1 were 2400 nM, 2800 nM and 4200 nM, respectively. In data set [2], this compound displayed a GI50 at 72 h of 3300 nM.
